This is an account of results in patent publication US20080146657A1, “Plant-Origin Alpha3-Adrenoceptor Agonist and Use of the Same” (priority 2003, published 2008).

Data set [1] concerns the target T1, human β3-adrenergic receptor (Homo sapiens, UniProt P13945).
T1 construct: expressed in transfected cells; vector pTracer-EF A
Nature of the data set: Measurement of human β3-adrenergic receptor agonist activity (intracellular cAMP, recombinant CHO-K1 cells). The format is cell-based. The protocol:
The obtained recombinant cells were cultured in a 96-well microplate until the cell density reaches 100%. After the medium was removed, the cells were washed once with Dulbecco's modified phosphate buffer solution (hereinafter, abbreviated as PBS; TaKaRa), and then 100 μL of an assay buffer [DMEM, 10% FCS, 20 mM HEPES (pH 7.2), 0.1 mM isobutylmethylxanthine] containing 10 μM isoproterenol was added. As a control, the assay buffer was used without addition of isoproterenol. After incubation at 37° C. for 20 minutes, the cells were washed once with PBS, and then the amount of intracellular cAMP were quantified using a cAMP EIA Kit (Amersham Bioscience). […] The selected recombinant cells were further cultured. […]
The human β3-adrenergic receptor-expressing recombinant 6H4-2d3 was cultured in a 96-well microplate in DMEM containing 10% FCS and 500 μg/mL Zeocin at 37° C. in a 5% CO2 atmosphere. […] The cells were washed once with PBS, and an assay buffer [DMEM, 10% FCS, 20 mM HEPES (pH 7.2), 0.1 mM isobutylmethylxanthine] supplemented with the test substance to be measured was added at 100 μL/well. After incubation at 37° C. for 10 minutes, the cells were washed once with PBS, and then their intracellular cAMP levels were quantified using a cAMP EIA Kit (Amersham Bioscience). […] The same test substance was measured three times and the mean and standard deviation of the measurements were used. […]

A further data set relates to 3T3-L1 adipocytes. As to the kind of experiment: Measurement of lipolytic effect using 3T3-L1 cells (glycerol release). The format is cell-based, mouse. The note with it: 5 μM to 500 μM; 3 days incubation. How it is done:
3T3-L1 cells which are adipocyte precursor cells derived from mice (purchased from Human Science Research Resource Bank) were added into a 96-well plate at 1×10^4 cells/well, and then cultured in Dulbecco's modified Eagle medium (D-MEM, GIBCO) supplemented with 10% fetal calf serum (FCS) at 37° C. in a 5% CO2 atmosphere. To induce differentiation to adipocytes, right before the cells reaches confluency, the medium was exchanged with 10% FCS-containing D-MEM supplemented with 0.5 mM 3-isobutyl-1-methylxanthine, 2×10^−7 M dexamethasone, and 0.8 μM insulin. Two days later, the medium was exchanged with 10% FCS-containing D-MEM supplemented only with 0.8 μM insulin. […] The culture medium of the cells cultured in the 96-well plate were removed by aspiration, 10% FCS-containing D-MEM containing the test substance was added at 100 μL/well, and after incubation for 3 days, 80 μL of the culture medium was collected from each well, and the amount of glycerol in the culture medium was determined using “F-Kit Glycerol” (Boehringer Mannheim). […] To a test medium, 0.5 to 500 μg/mL of dried lotus leaf extract, 0.5 to 500 μM of quercetin, and 10^−8 M to 10^−5 M of isoproterenol as a positive control were added individually, and the amount of glycerol released into the medium due to degradation of the fat stored in 3T3-L1 adipocytes was measured.

For data set [2] the following is noted: cited from earlier work.
For data set [3], the system named is rat β-adrenergic receptor. The note with it: rat adipocytes treated with quercetin; cited from earlier work.

Like-named read-outs stand apart in the source and are kept apart here.

T1 sequence (P13945 1-402 limits assumed): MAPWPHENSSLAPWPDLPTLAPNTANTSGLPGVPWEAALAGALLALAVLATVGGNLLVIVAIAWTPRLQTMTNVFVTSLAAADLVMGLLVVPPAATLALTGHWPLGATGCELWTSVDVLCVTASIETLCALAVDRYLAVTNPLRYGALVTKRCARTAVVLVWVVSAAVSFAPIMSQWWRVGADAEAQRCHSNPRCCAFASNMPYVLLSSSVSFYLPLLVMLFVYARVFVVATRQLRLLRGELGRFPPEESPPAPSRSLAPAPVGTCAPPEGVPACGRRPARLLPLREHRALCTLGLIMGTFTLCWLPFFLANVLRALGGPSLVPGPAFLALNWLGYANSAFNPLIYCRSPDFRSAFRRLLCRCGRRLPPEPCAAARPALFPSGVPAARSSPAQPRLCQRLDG

Regarding `O=C(O)[C@H]1O[C@@H](Oc2c(-c3ccc(O)c(O)c3)oc3cc(O)cc(O)c3c2=O)[C@H](O)[C@@H](O)[C@@H]1O` [Q3GA, quercetin 3-O-β-D-glucuronide], in data set [1] (1 μM, 10 μM, 100 μM, 1000 μM, compared with quercetin), the “β3-adrenergic receptor agonist activity (cAMP)” value is reported as “β3-adrenergic receptor agonist activity similar to that of quercetin”.
As to `O=c1c(O)c(-c2ccc(O)c(O)c2)oc2cc(O)cc(O)c12` [quercetin, 3,3′,4′,5,7-pentahydroxyflavone], in data set [1] (15 μM, 30 µM, 60 μM, only in CHO-K1 cells expressing the receptor, not in non-expressing CHO-K1), the “accumulation of cAMP” value is listed as “significant accumulation of cAMP”. The “Lipolysis (glycerol released into the medium)” value with 3T3-L1 adipocytes is “significantly promoted”. Further, the Solubility result in data set [2] (boiling water) was “slightly soluble”; in data set [2] (cold alcohol-ether), “poorly soluble”; in data set [2] (cold water), “insoluble”; in data set [2] (hot alcohol-glacial acetic acid), “readily soluble”. Moreover, the cAMP accumulation result in data set [3] is “cAMP accumulates”.
